# Results reported in US20250073211A1, “USE OF ERGOTHIONEINE TO SUPPRESS DELETERIOUS EFFECTS OF SENESCENCE” (NANJING NUTRABUILDING BIO-TECH CO., LTD., priority 2022, published 2025).
# Columns and labels:
# HDFn cells [1] = assay: Senostatic Profile Assay (senescence markers Ki67, p21, p16, SAβG under chronic supplementation); type: cell-based, Human; settings: for percentage of SAβG positive HDFn cells: untreated 9.8%±2.7
# Description: (§1) HDFn cells (C0045C, Thermo Scientific, US) were obtained and proliferated to passage 32 (population doubling 58) in standard DMEM proliferation medium (10% FBS) at standard culture conditions (37°° C., 20% O2, 5% CO2). At each passage, cells were cryopreserved and banked. The cells were deemed replicatively senescent at passage 32. When required, cryovial contents was thawed gradually into 5 ml pre-warmed 10% FBS media with gentle pipetting and centrifuged. The supernatant was discarded, and the cell pellet was resuspended into 10% media and cells were counted using a hemocytometer and trypan blue.
# Treatment conditions tested in this assay were 0, 0.5, 3.0 and 30 μM of EGT as a constant supplementation in standard DMEM (10% FBS). HDFn cells were thawed at passage 20 and seeded at 1.5×10^5 cells per flask. Three flasks per condition were seeded. Media was changed every three days. At passages 22, 24, and 26, the HDFn cells were seeded onto 48-well plates at 10,000 cells per well in triplicates per flask, and cultured in DMEM media containing 0, 0.5, 3.0, and 30 μM of EGT, respectively. The cells were proliferated until 70% confluence or for 7 days. The cells were then washed with PBS and fixed with 2% PFA, and stored at 4° C. until immunostaining. For β-galactosidase staining, the staining solution was added onto the cells immediately after fixation and incubated at 37° C. for 24 h. The staining solution was removed, and the wells filled with PBS until imaging. As a positive control for senescence phenotype, one set of wells from the untreated flasks were seeded. At 70% confluence, the cells were treated with 600 μM of hydrogen peroxide in serum-free DMEM for 2 h, then incubated with standard DMEM proliferation medium for 5 days to allow the senescence phenotype to develop. The cells were fixed and stained in the same manner as the other treatment conditions.
# (§2) The panel of senescence markers, Ki67, p16 and p21 were analyzed by immunohistochemical staining using an HRP/DAB kit (ab64264, Abcam, UK). • Antibody details • 1) Ki67—1:1000 dilution, anti-rabbit, ab92742, Abcam; • 2) p16—1:500 dilution, anti-rabbit, ab 108349, Abcam; • 3) p21—1:100 dilution, anti-rabbit, ab 109542, Abcam.
# (§3) The cells were counterstained with hematoxylin.
# (§4) The senescence-associated β-galactosidase solutions and staining was performed according to Dimri et al, A biomarker that identifies senescent human cells in culture and in aging skin in vivo, Proc. Natl. Acad. Sci. 1995 Sep. 26; 92 (20): 9363-9367. The cells were counterstained with Nuclear Fast Red.
# (§5) All staining were imaged on an EVOS XL core microscope at 100× magnification.
# (§6) The images were white balanced using a macro on ImageJ. Cells were manually counted using the cell counter plugin and recorded. Graphs and statistics were created using GraphPad Prism 5. For each dataset, a two-way ANOVA was performed with Bonferroni posthoc test against the untreated control. P-values on the graphs are shown as *p<0.05, ** p<0.01, *** p<0.001.
# HDFn cells [2] = assay: Senolytic Profile Assay (cell counts and senescence markers after 3 days of acute treatment at passage 31); type: cell-based, Human; settings: for Ki67-positive population: day 9 to 12 timepoint, 0 μM: 3.4%±1.5, p<0.001; for percentage of p21 positive HDFn cells / percentage of p16 positive HDFn cells: timepoint 1 (day 0 to 3); for percentage of p21 positive HDFn cells: 0 μM: 63.1%±9.3; for percentage of p16 positive HDFn cells: 0 μM: 67.8%±4.7; for cell counts: 3 days of treatment
# Description: as §1
# Treatment conditions tested in this assay were 0, 3, 30 and 300 μM of EGT as an acute supplementation over 3 days in standard DMEM (10% FBS). Positive controls for senolytic activity were 13 μM of Navitoclax and 600 μM of Fisetin. A 0.1% DMSO condition was introduced as a vehicle control for Fisetin. At passage 31, the HDFn cells were seeded at 10,000 cells per well in triplicate wells onto 48-well plates. After 2 days of acclimatization, cells were treated for 3 days with the conditions above. The cells were then washed with PBS and fixed with 2% PFA. The wells were filled with PBS and stored at 4° C. until immunostaining. For β-galactosidase staining, the staining solution was added onto the cells immediately after fixation and incubated at 37° C. for 24 h. The staining solution was removed, and the wells filled with PBS until imaging. This was repeated for timepoints day 0 to 3, day 6 to 9, and day 9 to 12.
# as §2, §3, §4, §5, §6
smiles,measurement,setting,value
"C[N+](C)(C)[C@@H](Cc1c[nH]c(=S)[nH]1)C(=O)[O-] [EGT, L-Ergothioneine]",effect on the percentage of p16 positive HDFn cells,"HDFn cells [1]; across all three passages (22, 24, 26), EGT 0.5, 3.0, 30 μM",did not robustly affect
same,change of percentage of Ki67 positive HDFn cells compared with the untreated control,"HDFn cells [1]; all three passages (22, 24, 26), EGT 0.5, 3.0, 30 μM constant supplementation",did not result in statistically significant changes
same,senostatic effect,HDFn cells [1]; low chronic doses (0.5-30 μM) in HDFn cells,can confer senostatic effects
same,reduction of the percentage of p21 positive HDFn cells,"HDFn cells [1]; passage 22, 0.5 μM EGT, p<0.001",16.5%
same,percentage of p21 positive HDFn cells,"HDFn cells [1]; passage 22, 0.5 μM EGT, untreated 82.5%±2.3, mean±SEM",66.0%±2.4
same,reduction of the percentage of p21 positive HDFn cells,"HDFn cells [1]; passage 22, 3 μM EGT, p<0.001",20.1%
same,reduction of the percentage of p21 positive HDFn cells,"HDFn cells [1]; passage 22, 30 μM EGT, p<0.001",21.8%
same,reduction in p16-positive cells,"HDFn cells [1]; passage 24, 0.5 μM EGT, p<0.001",15%
same,change of percentage of p21 positive HDFn cells,"HDFn cells [1]; passage 24 or 26, EGT 0.5, 3.0, 30 μM",did not result in statistically significant changes
same,percentage of SAβG positive HDFn cells,"HDFn cells [1]; passage 26, 0.5 μM EGT, p<0.001",4.8%±5.7
same,percentage of SAβG positive HDFn cells,"HDFn cells [1]; passage 26, 3.0 μM EGT, p<0.001",3.5%±2.0
same,percentage of SAβG positive HDFn cells,"HDFn cells [1]; passage 26, 30 μM EGT, p<0.001",5.0%±2.9
same,mean SAβG reduction,"HDFn cells [1]; passage 26, mean over 0.5, 3.0 and 30 μM EGT",50%
same,senolytic activity,"HDFn cells [2]; HDFn cells at passage 31, at up to 300 μM",not senolytic
same,Ki67-positive population,"HDFn cells [2]; passage 31, 30 μM EGT",9.2%±3.8
same,percentage of p21 positive HDFn cells,"HDFn cells [2]; passage 31, 30 μM EGT",29.1%±7.4
same,percentage of p16 positive HDFn cells,"HDFn cells [2]; passage 31, 30 μM EGT",7.0%±2.8
same,Ki67-positive population,"HDFn cells [2]; passage 31, 300 μM EGT",11.4%±2.6
same,percentage of p21 positive HDFn cells,"HDFn cells [2]; passage 31, 300 μM EGT",27.0%±2.0
same,percentage of p16 positive HDFn cells,"HDFn cells [2]; passage 31, 300 μM EGT",11.7%±5.9
same,cell counts,"HDFn cells [2]; passage 31, 3, 30 and 300 μM EGT vs 0 μM",did not change much
same,effect on the percentage of SAβG positive HDFn cells,"HDFn cells [2]; passage 31, EGT 3, 30, 300 μM, any timepoint",no statistically significant effect
"O=c1c(O)c(-c2ccc(O)c(O)c2)oc2cc(O)ccc12 [FIS, Fisetin, reference compound]",cell counts,"HDFn cells [2]; passage 31, 600 μM Fisetin, positive control",dramatically decreased
"CC1(C)CCC(c2ccc(Cl)cc2)=C(CN2CCN(c3ccc(C(=O)NS(=O)(=O)c4ccc(N[C@H](CCN5CCOCC5)CSc5ccccc5)c(S(=O)(=O)C(F)(F)F)c4)cc3)CC2)C1 [NAV, Navitoclax, reference compound]",cell counts,"HDFn cells [2]; passage 31, 13 μM Navitoclax, positive control",dramatically decreased
"OO [hydrogen peroxide, reference compound]",SAβG levels (senescence-associated β-galactosidase positive HDFn cells),"HDFn cells [1]; 600 μM hydrogen peroxide for 2 h, then 5 days, positive control for senescence phenotype",remained low
